Measured values reported in patent US7078487B2, “PTH1R receptors” (The General Hospital Corporation, priority 1998, dated 2006).

How the values were obtained:
[1] = system: zPTH1R; experiment: Agonist-stimulated cAMP accumulation, COS-7 cells expressing zPTH1R; type: cell-based, zebrafish; details: for EC50 / cAMP Maximum: intact COS-7 cells, room temperature
Description: (§1) Plasmid DNAs encoding the two full length ZPTH1Rs (#25 and #29) and the zPTH3R were transiently expressed in COS-7 cells. COS-7 African green monkey kidney cells (approximately 200,000 cells/well in a 24-well plate) were cultured and transfected with plasmid DNA (200 ng/well) as described (Rubin et al., (1998)). After transfection, cells were cultured for 72 hrs at 37° with daily exchanges of medium, followed by an additional 24 hrs at 33° (Gardella et al., (1997)) until they were functionally evaluated after 96 hrs.
(§2) In order to assess agonist-dependent cAMP accumulation of COS-7 cells expressing zPTH1R and zPTH3R, experiments were done in 24-well plates with COS-7 cells stimulated in the presence of increasing concentrations of either PTH or PTHrP, and intracellular cAMP was determined as described (Bergiwtz et al.,(1998)). EC50 values were determined as previously described (Gardella et al., (1996)).
(§3) Competitive binding and cAMP stimulation assays were performed at room temperature with intact COS-7 cells that expressed either the zPTH1R or the zPTH3R, as described in Materials and Methods. Homologous binding reactions utilized ^125I-rPTH with unlabeled rPTH, and ^125I-hPTHrP with unlabeled hPTHrP, heterologous binding reactions utilized ^125I-[…] with unlabeled rPTH. EC50 and IC50 values were determined as previously described (Gardella et al., 1996). Values are the mean±SEM of at least three independent transfections. ND, not determined.

[2] = system: zPTH3R; experiment: Competitive radioligand binding, COS-7 cells expressing zPTH3R; set-up: species or system zebrafish
Chain of zPTH3R (as listed by the source): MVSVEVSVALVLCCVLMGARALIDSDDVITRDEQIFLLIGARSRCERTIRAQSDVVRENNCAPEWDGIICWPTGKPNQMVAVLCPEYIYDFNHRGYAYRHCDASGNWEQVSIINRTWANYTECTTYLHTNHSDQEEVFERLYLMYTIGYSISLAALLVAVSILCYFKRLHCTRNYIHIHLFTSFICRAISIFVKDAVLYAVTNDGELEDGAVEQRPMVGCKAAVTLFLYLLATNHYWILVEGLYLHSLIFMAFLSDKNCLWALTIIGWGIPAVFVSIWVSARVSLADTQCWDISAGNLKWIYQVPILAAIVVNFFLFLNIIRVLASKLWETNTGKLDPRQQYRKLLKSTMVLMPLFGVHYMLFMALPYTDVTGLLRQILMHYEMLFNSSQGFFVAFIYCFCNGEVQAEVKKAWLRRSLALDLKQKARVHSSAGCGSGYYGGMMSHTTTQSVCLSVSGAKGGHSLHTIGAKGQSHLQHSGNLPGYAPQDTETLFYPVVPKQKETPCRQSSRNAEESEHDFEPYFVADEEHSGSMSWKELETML
Description: as §1
Radioligand studies with COS-7 cells expressing either zPTH1R or zPTH3R were performed as described using either ^125I-labeled [Nle^8,21,Tyr^34]rPTH-(1–34)amide (rPTH) (SEQ ID NO:22) or ^125I-labeled [Tyr^36]hPTHrP-(1–36)amide (PTHrP) (SEQ ID NO:23), and increasing concentrations of either [Tyr^34]hPTH(1–34)amide (PTH) (SEQ ID NO:24), or [Tyr36]hPTHrP(1–36)amide (PTHrP) (SEQ ID NO:25) (Bergwitz et al., (1997)). […] Specific binding was calculated by subtracting radioligand binding in the presence of excess unlabeled peptide from the total binding. […]
Competitive binding and cAMP stimulation assays were performed at room temperature with intact COS-7 cells that expressed either the zPTH1R or the zPTH3R, as described in Materials and Methods. […] EC50 and IC50 values were determined as previously described (Gardella et al., 1996). […] ND, not determined.

[3] = system: zPTH3R; experiment: Agonist-stimulated cAMP accumulation, COS-7 cells expressing zPTH3R; type: cell-based, zebrafish
Description: as §1, §2, §3

[4] = system: zPTH3R; experiment: Total inositol phosphate accumulation, COS-7 cells expressing zPTH3R; type: cell-based, zebrafish; details: ligand 10^−6 M, 30 mM LiCl
Description: (§4) In order to determine total inositol phosphate turnover for COS-7 cells expressing zPTH1R, zPTH3R, and hPTH1R, cells were grown in 6-well plates with COS-7 cells (approximately 200,00 cells/well transfected with either 1 μg/well of zPTH1R, zPTH3R, or hPTH 1R (stina)). Cells were cultured for 3 days inDMEM/7% fetal bovine serum (FBS) at 37° C. with daily exchanges of medium. The cells were then preloaded with 3 μCi/ml myo-[^3H]inositol (New England Nuclear, Boston, Mass.) in inositol-free DMEM (Gibco)/7% FBS (33° C. for 18 hr). The following day, plates were rinsed and then incubated with 10^−6 M of either PTH, PTHrP in DMEM/0.1% BSA, or with DMEM/0.1% BSA alone (40 min at 37° C.), in the presence of 30 mM LiCl. Total inositol phosphate (IPs) were isolated by anion exchange column chromatography as previously described (Iida-Klein et al., (1994 and 1995)), and 1 ml of the eluate (⅛th of total) was counted in a liquid scintillation counter (model LS 60001C, Beckman, Fullerton, Calif.). All points represent mean±S.E.M. of two to three replicates from two or more independent experiments.

[5] = system: zPTH1R; experiment: Total inositol phosphate accumulation, COS-7 cells expressing zPTH1R; type: cell-based, zebrafish; details: ligand 10^−6 M, 30 mM LiCl
Description: as §4

[6] = zPPR3, intact COS-7 cells, room temperature

Chain of zPTH1R (as listed by the source): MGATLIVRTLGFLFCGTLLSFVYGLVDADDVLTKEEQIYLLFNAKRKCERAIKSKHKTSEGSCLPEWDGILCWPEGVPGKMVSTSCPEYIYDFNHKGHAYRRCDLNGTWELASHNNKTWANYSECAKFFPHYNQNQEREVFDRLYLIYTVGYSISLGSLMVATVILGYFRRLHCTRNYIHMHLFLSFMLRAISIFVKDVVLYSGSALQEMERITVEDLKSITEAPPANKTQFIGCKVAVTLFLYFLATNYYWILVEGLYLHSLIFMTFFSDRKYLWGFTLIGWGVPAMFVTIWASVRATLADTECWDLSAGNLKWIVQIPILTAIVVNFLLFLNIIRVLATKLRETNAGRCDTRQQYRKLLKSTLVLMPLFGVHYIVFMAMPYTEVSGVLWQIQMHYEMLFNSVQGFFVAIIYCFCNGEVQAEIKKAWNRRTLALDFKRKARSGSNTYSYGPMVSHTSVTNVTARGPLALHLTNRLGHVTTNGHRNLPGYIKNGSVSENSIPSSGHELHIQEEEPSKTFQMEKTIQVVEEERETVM

| Substance | EC50 ([1]; zPPR1#25) [pM] | cAMP Maximum ([1]; zPPR1#25) [pmol/well] | EC50 ([1]; zPPR1#29) [pM] | cAMP Maximum ([1]; zPPR1#29) [pmol/well] | maximal cAMP accumulation ([1]; zPTH1R#25, COS-7 cells) [pmole/well] | maximal cAMP accumulation ([1]; zPTH1R#29, COS-7 cells) [pmole/well] | IC50 [2, 6] [pM] | Kd ([2]; zPTH3R, COS-7 cells, read-out: apparent Kd) [pM] | EC50 [3, 6] [pM] | maximal cAMP accumulation [3, 6] [pmol/well] | maximal cAMP accumulation ([3]; zPTH3R, COS-7 cells) [pmol/well] | cAMP activation at low concentration ([3]; zPTH3R, COS-7 cells, 10^−11 M) | IP accumulation [4] | increase of IP accumulation [5] [fold] |
| --- | --- | --- | --- | --- | --- | --- | --- | --- | --- | --- | --- | --- | --- | --- |
| [Tyr36]hPTHrP(1–36)amide | 900 ± 90 | 92.4 ± 8.00 | 300 ± 40 | 101.6 ± 3.6 | 92.4 | 101.6 | ~3000 | ~3000 | 490 ± 170 | 285.4 ± 3.4 | 227 | significant activation | no IP accumulation was detectable | 2 |
| AVAEIQLMHNLGKHLNSMERVEWLRKKLQDVHDY [hPTH, [Tyr^34]hPTH(1–34)amide] | – | 90.4 ± 11.4 | 800 ± 30 | 106.2 ± 4.8 | 90.4 | 106.2 | – | – | 5980 ± 240 | 227.4 ± 41.6 | 285 | – | no IP accumulation was detectable | 2 |
